The text below walks through data of patent US20240308995A1, “O-GLYCOPROTEIN-2-ACETAMIDO-2-DEOXY-3-D-GLUCOPYRANOSIDASE INHIBITORS” (BIOGEN MA INC., priority 2018, published 2024).

Structures are written as SMILES.

The target of data set [1] is Recombinant full length human OGA enzyme (Homo sapiens (Human), UniProt O60502). Put plainly: OGA Enzyme Inhibition Biochemical Assay. The following applies: 1 nM OGA, 100 μM 4-MUGlcNAc, pH 6.4. Summed up:
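Full-length recombinant human OGA with fluorogenic 4-MUGlcNAc in McIlvaine buffer pH 6.4, 0.01% BSA; 90 min at room temperature, glycine pH 10 quench, fluorescence Ex 355/Em 460 nm. 10-point, 4-fold dilution from 20 μM; 4-parameter variable-slope fit.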

Data set [2] has as its target OGA (S400 O-GLCNAC), HEK-293T cells transfected with Tau-V5 (Homo sapiens (Human), UniProt O60502). The experiment in a line: Cellular OGA-Tau MSD Assay. It is filed as cell-based. Conditions: HEK-293T cells, Tau-S400-GlcNAc MSD readout. The essentials: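 HEK-293T cells transfected with OGA and Tau-V5 plasmids were treated overnight at 37° C with a 10-point, 3-fold titration from 1 uM. Lysates went onto V5-antibody MSD plates to capture Tau, probed with a Tau O-GlcNAc antibody and read by electrochemiluminescence; IC50 from a 4-parameter fit.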

A further data set relates to P-gp (MDR1). The experiment in a line: MDR1-MDCK Efflux Ratio Assay. In kind it is in vitro ADME. Conditions: dog, MDCK-MDR1, pH 7.4, MDR1-MDCK cells, 2 hr, pH 7.4; read-out: MDR1-MDCK Efflux Ratio (B-A/A-B). The procedure: MDR1-MDCK cell monolayers were grown to confluence on microporous polyester membranes in 96-well Corning insert plates. The permeability assay buffer was Hanks' Balanced Salt Solution containing 10 mM HEPES at pH of 7.4. Loperamide (1 μM) was used as a positive control P-gp substrate. Propranolol and Bestatin (1 μM) were used as high and low permeability comparators, respectively. Test compounds or positive control P-gp substrate/permeability comprators were added to respective apical and basolateral chambers for bidirectional assessment of permeability. Receiver buffer (transport buffer supplemented with 1% bovine serum albumin) was added to respective receiver chambers. MDR1-MDCK cells were incubated with test compounds at 37° C. with 5% CO2 for 2 hr. Samples were collected from the donor chamber at both 0 and 120 minutes, and from the receiver chamber at 120 minutes. Test and control compound concentrations were determined using LC-MS/MS analysis. Each determination was performed in triplicate. The apparent permeability (Papp), efflux ratio and mass balance (percent recovery) were calculated as follows: [formula] where: dCr/dt is the cumulative concentration in the receiver compartment versus time in μM s^−1 Vr is the volume of the receiver compartment in cm^3 Vd is the volume of the donor compartment in cm^3 A is the area of the insert (0.143 cm^2 for 96-well insert) CE is the estimated experimental concentration (Time=0) of the dosing solution Cr^final is the concentration of the receiver at the end of the incubation period Cd^final is the concentration of the donor at the end of the incubation period.

Data set [3] is described as follows: Rat Liver Microsome Stability Assay. It is filed as in vitro ADME. Conditions: rat liver microsomes, 1 uM compound.

Recombinant full length human OGA enzyme, sequence (O60502 whole entry): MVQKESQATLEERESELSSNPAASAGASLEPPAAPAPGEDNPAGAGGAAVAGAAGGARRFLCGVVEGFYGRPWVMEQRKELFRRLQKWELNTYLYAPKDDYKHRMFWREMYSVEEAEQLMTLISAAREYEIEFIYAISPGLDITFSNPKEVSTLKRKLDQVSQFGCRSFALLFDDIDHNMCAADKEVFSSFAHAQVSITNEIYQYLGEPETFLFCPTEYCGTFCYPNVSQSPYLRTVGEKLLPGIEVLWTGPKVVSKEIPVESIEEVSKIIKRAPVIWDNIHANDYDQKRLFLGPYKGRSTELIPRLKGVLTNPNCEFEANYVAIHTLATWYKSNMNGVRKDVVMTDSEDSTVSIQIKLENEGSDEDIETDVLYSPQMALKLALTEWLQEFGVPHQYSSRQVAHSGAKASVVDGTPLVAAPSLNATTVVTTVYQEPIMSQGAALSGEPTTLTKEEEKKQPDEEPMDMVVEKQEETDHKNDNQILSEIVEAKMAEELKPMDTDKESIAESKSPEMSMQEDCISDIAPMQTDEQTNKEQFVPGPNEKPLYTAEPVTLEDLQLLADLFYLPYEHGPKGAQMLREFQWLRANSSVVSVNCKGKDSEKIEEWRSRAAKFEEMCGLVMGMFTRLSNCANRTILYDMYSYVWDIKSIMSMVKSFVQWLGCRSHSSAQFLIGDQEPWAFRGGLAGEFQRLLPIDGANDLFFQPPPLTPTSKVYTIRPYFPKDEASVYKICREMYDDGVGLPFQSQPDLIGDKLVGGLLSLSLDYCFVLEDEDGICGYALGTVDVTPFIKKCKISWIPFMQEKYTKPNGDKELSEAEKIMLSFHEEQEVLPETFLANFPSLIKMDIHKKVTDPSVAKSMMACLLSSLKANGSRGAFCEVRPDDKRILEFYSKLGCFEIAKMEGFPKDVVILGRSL
OGA (S400 O-GLCNAC), HEK-293T cells transfected with Tau-V5, sequence (O60502 whole entry): as above

With `COc1cc(O[C@H]2C[C@@H](C)N(Cc3cnc(NC(C)=O)s3)C2)ncn1` [Example 1-40, N-(5-(((2R,4S)-4-((6-methoxypyrimidin-4-yl)oxy)-2-methylpyrrolidin-1-yl)methyl)thiazol-2-yl)acetamide], the IC50 in data set [1] was 0.72 µM; in data set [2] it was > 1 µM. In addition, the efflux ratio at 2 h in the data set with P-gp (MDR1) was determined as 5.3. Also, the “RLM % Qh (%)” value in data set [3] is listed as 20%.

With `COc1cc(O[C@H]2CCCN(Cc3cnc(NC(C)=O)s3)C2)ncn1` [Example 1-41, (S)—N-(5-((3-((6-methoxypyrimidin-4-yl)oxy)piperidin-1-yl)methyl)thiazol-2-yl)acetamide], the IC50 was 0.024 µM in data set [1] and 0.029 µM in data set [2]. In addition, the efflux ratio at 2 h with P-gp (MDR1) came out at 4.3. Further, the “RLM % Qh (%)” value in data set [3] is reported as 80%.

Take `COc1cc(O[C@@H]2CCCN(Cc3cnc(NC(C)=O)s3)C2)ncn1` [Example 1-42, (R)—N-(5-((3-((6-methoxypyrimidin-4-yl)oxy)piperidin-1-yl)methyl)thiazol-2-yl)acetamide]: the figures for the IC50 in data set [1] and in data set [2] were 0.039 µM and 0.081 µM, respectively. Also, the efflux ratio at 2 h with P-gp (MDR1) amounted to 3.9. For the same molecule, the “RLM % Qh (%)” value in data set [3] is recorded as 61%.

In the case of `COc1cc(O[C@H]2CC[C@H](C)N(Cc3cnc(NC(C)=O)s3)C2)ncn1` [Example 1-43, N-(5-(((2S,5S)-5-((6-methoxypyrimidin-4-yl)oxy)-2-methylpiperidin-1-yl)methyl)thiazol-2-yl)acetamide], the IC50 in data set [1] is < 0.001 µM; in data set [2], 0.001 µM. Also, the efflux ratio at 2 h with P-gp (MDR1) worked out at 6.9. In data set [3], the “RLM % Qh (%)” value was 81%.

As for `COc1cc(O[C@@H]2CC[C@H](C)N(Cc3cnc(NC(C)=O)s3)C2)ncn1` [Example 1-44, N-(5-(((2S,5R)-5-((6-methoxypyrimidin-4-yl)oxy)-2-methylpiperidin-1-yl)methyl)thiazol-2-yl)acetamide], the values for the half-maximal inhibitory concentration (IC50) in data set [1] and in data set [2] were < 0.001 µM and 0.002 µM, respectively. In addition, the efflux ratio at 2 h in the data set on P-gp (MDR1) was 9.3. In data set [3], the “RLM % Qh (%)” value was found to be 88%.

With `CCC(=O)Nc1nc(F)c(CN2CC[C@@H](Oc3cc(OC)ncn3)C2)s1` [Example 1-45, (R)—N-(4-fluoro-5-((3-((6-methoxypyrimidin-4-yl)oxy)pyrrolidin-1-yl)methyl)thiazol-2-yl)propionamide], the results for the IC50 in data set [1] and in data set [2] were 0.047 µM and 0.966 µM, respectively. In addition, the efflux ratio at 2 h in the data set with P-gp (MDR1) is 1.7. Also, the “RLM % Qh (%)” value in data set [3] was 61%.

Take `COc1cc(O[C@@H]2C[C@H](C)N(Cc3sc(NC(C)=O)nc3Cl)C2)ncn1` [Example 1-46, N-(4-chloro-5-(((2S,4R)-4-((6-methoxypyrimidin-4-yl)oxy)-2-methylpyrrolidin-1-yl)methyl)thiazol-2-yl)acetamide]: the half-maximal inhibitory concentration (IC50) in data set [1] was 0.001 µM; in data set [2], 0.038 µM. In addition, the efflux ratio at 2 h in the data set on P-gp (MDR1) was found to be 3.2. The “RLM % Qh (%)” value in data set [3] turned out to be 55%.

For `CC(=O)Nc1nc(F)c(CN2C[C@H](Oc3ccc(F)cn3)C[C@@H]2C)s1` [Example 1-47, N-(4-fluoro-5-(((2S,4R)-4-((5-fluoropyridin-2-yl)oxy)-2-methylpyrrolidin-1-yl)methyl)thiazol-2-yl)acetamide], the values for the IC50 in data set [1] and in data set [2] were < 0.001 µM and 0.001 µM, respectively. Also, the efflux ratio at 2 h in the data set on P-gp (MDR1) came out at 1.5. Also, in data set [3], the “RLM % Qh (%)” value is listed as 76%.

Turning to `CC(=O)Nc1nc(F)c(CN2CC[C@H](Oc3cc(C)nc(C)c3)C2)s1` [Example 1-48, (S)—N-(5-((3-((2,6-dimethylpyridin-4-yl)oxy)pyrrolidin-1-yl)methyl)-4-fluorothiazol-2-yl)acetamide], the IC50 in data set [1] was found to be 0.15 µM; in data set [2], 0.821 µM. The efflux ratio at 2 h with P-gp (MDR1) came to 24.1. Further, the “RLM % Qh (%)” value in data set [3] was found to be 57%.

Take `CC(=O)Nc1nc(F)c(CN2CC[C@@H](Oc3cc(C)nc(C)c3)C2)s1` [Example 1-49, (R)—N-(5-((3-((2,6-dimethylpyridin-4-yl)oxy)pyrrolidin-1-yl)methyl)-4-fluorothiazol-2-yl)acetamide]: the values for the half-maximal inhibitory concentration (IC50) in data set [1] and in data set [2] were < 0.001 µM and 0.01 µM, respectively. The efflux ratio at 2 h in the data set on P-gp (MDR1) worked out at 18.9. Moreover, the “RLM % Qh (%)” value in data set [3] was found to be 34%.

For the molecule `CC(=O)Nc1nc(F)c(CN2C[C@H](Oc3cc(C)nc(C)c3)C[C@@H]2C)s1` [Example 1-50, N-(5-(((2S,4R)-4-((2,6-dimethylpyridin-4-yl)oxy)-2-methylpyrrolidin-1-yl)methyl)-4-fluorothiazol-2-yl)acetamide], the IC50 is < 0.001 µM in data set [1] and 0.001 µM in data set [2]. The efflux ratio at 2 h in the data set with P-gp (MDR1) was determined as 22.4. In addition, in data set [3], the “RLM % Qh (%)” value was 47%.

Regarding `CC(=O)Nc1nc(F)c(CN2C[C@@H](Oc3cc(C)nc(C)c3)C[C@@H]2C)s1` [Example 1-52, N-(5-(((2S,4S)-4-((2,6-dimethylpyridin-4-yl)oxy)-2-methylpyrrolidin-1-yl)methyl)-4-fluorothiazol-2-yl)acetamide], the 50% inhibitory concentration (IC50) was 0.033 µM in data set [1] and 0.055 µM in data set [2]. In addition, the efflux ratio at 2 h in the data set with P-gp (MDR1) amounted to 12.9. Further, the “RLM % Qh (%)” value in data set [3] was found to be 76%.

With `CC(=O)Nc1nc(F)c(CN2C[C@@H](Oc3cc(C)nc(C)c3)C[C@H]2C)s1` [Example 1-53, N-(5-(((2R,4S)-4-((2,6-dimethylpyridin-4-yl)oxy)-2-methylpyrrolidin-1-yl)methyl)-4-fluorothiazol-2-yl)acetamide], the IC50 was 1.7 µM in data set [1] and > 1 µM in data set [2]. In the data set with P-gp (MDR1), the efflux ratio at 2 h turned out to be 21.8. The “RLM % Qh (%)” value in data set [3] stood at 26%.

Regarding `CC(=O)Nc1nc(F)c(CN2CCC[C@H](Oc3cc(C)nc(C)c3)C2)s1` [Example 1-54, (S)—N-(5-((3-((2,6-dimethylpyridin-4-yl)oxy)piperidin-1-yl)methyl)-4-fluorothiazol-2-yl)acetamide], the 50% inhibitory concentration (IC50) in data set [1] is 0.011 µM; in data set [2], 0.07 µM. In addition, the efflux ratio at 2 h with P-gp (MDR1) turned out to be 25.4. The “RLM % Qh (%)” value in data set [3] amounted to 78%.

For `CC(=O)Nc1nc(F)c(CN2CCC[C@@H](Oc3cc(C)nc(C)c3)C2)s1` [Example 1-55, (R)—N-(5-((3-((2,6-dimethylpyridin-4-yl)oxy)piperidin-1-yl)methyl)-4-fluorothiazol-2-yl)acetamide], the IC50 in data set [1] is 0.0011 µM; in data set [2], 0.013 µM. Besides, the efflux ratio at 2 h in the data set on P-gp (MDR1) was found to be 19. The “RLM % Qh (%)” value in data set [3] worked out at 85%.

Take `CC(=O)Nc1nc(F)c(CN2C[C@H](Oc3cc(C)nc(C)c3)CC[C@@H]2C)s1` [Example 1-57, N-(5-(((2S,5R)-5-((2,6-dimethylpyridin-4-yl)oxy)-2-methylpiperidin-1-yl)methyl)-4-fluorothiazol-2-yl)acetamide]: the IC50 in data set [1] is < 0.001 µM; in data set [2], 0.003 µM. Moreover, the efflux ratio at 2 h in the data set with P-gp (MDR1) is 26.4. The “RLM % Qh (%)” value in data set [3] is listed as 93%.

Take `CC(=O)Nc1ncc(CN2CC[C@H](Oc3cc(C)nc(C)c3)C2)s1` [Example 1-58, (S)—N-(5-((3-((2,6-dimethylpyridin-4-yl)oxy)pyrrolidin-1-yl)methyl)thiazol-2-yl)acetamide]: the IC50 in data set [1] is 0.52 µM; in data set [2] it was > 1 µM. Also, the efflux ratio at 2 h with P-gp (MDR1) amounted to 28.5. In data set [3], the “RLM % Qh (%)” value amounted to 16%.

In the case of `CC(=O)Nc1ncc(CN2CC[C@@H](Oc3cc(C)nc(C)c3)C2)s1` [Example 1-59, (R)—N-(5-((3-((2,6-dimethylpyridin-4-yl)oxy)pyrrolidin-1-yl)methyl)thiazol-2-yl)acetamide], the IC50 in data set [1] came out at 0.0019 µM; in data set [2], 0.008 µM. Further, the efflux ratio at 2 h in the data set on P-gp (MDR1) amounted to 22.2. For the same molecule, the “RLM % Qh (%)” value in data set [3] turned out to be 55%.

For `CC(=O)Nc1ncc(CN2C[C@H](Oc3cc(C)nc(C)c3)C[C@@H]2C)s1` [Example 1-60, N-(5-(((2S,4R)-4-((2,6-dimethylpyridin-4-yl)oxy)-2-methylpyrrolidin-1-yl)methyl)thiazol-2-yl)acetamide], the IC50 is < 0.001 µM in data set [1] and 0.001 µM in data set [2]. The efflux ratio at 2 h with P-gp (MDR1) stood at 21.3. In addition, in data set [3], the “RLM % Qh (%)” value is 56%.

On to `CC(=O)Nc1ncc(CN2C[C@H](Oc3cc(C)nc(C)c3)C[C@H]2C)s1` [Example 1-61, N-(5-(((2R,4R)-4-((2,6-dimethylpyridin-4-yl)oxy)-2-methylpyrrolidin-1-yl)methyl)thiazol-2-yl)acetamide], for which the 50% inhibitory concentration (IC50) in data set [1] was 0.007 µM; in data set [2], 0.039 µM. Also, the efflux ratio at 2 h in the data set with P-gp (MDR1) was found to be 45.2. The “RLM % Qh (%)” value in data set [3] is given as 31%.
